This is an account of results in patent US4448970A, “Nargenicin derivatives” (The Upjohn Company, priority 1981, dated 1984).

In one assay the test system is B. fragilis. The following applies: cited from earlier work.
The test system of the next assay is C. perfringens. The following applies: cited from earlier work.
The test system of the next assay is Mycobacterium avium. The settings on record: cited from earlier work.
For a further assay, the system named is K. pneumoniae. The following applies: cited from earlier work.
In assay [1] the test system is S. lutea. The following applies: cited from earlier work.
The next assay deals with Sarcina lutea. Briefly: Standard agar diffusion (12.5 cm disc) test, Sarcina lutea. The format is cell-based. The settings on record: for zone of inhibition at 1000 µg/mL: Micrococcus luteus. The method, then: (§1) When tested on a standard agar diffusion (12.5 cm disc) test at a concentration of 1 mg/ml compound (45) gave the following zones of inhibition in mm:
(§2) The antibacterial activity of compounds (46), (47), (48), (49) and (50) on a standard agar diffusion (12.5 cm disc) test at a concentration of 1 mg/ml is shown in the following table: […]

For the next assay, the system named is Staphylococcus aureus. Briefly: Standard agar diffusion (12.5 cm disc) test, Staphylococcus aureus. The assay is classed as cell-based. The settings on record: for zone of inhibition at 1000 µg/mL: Staphylococcus aureus. The method, then: as §1, §2
For assay [2], the system named is S. lutea. Briefly: Standard dipped disc agar diffusion assay, S. lutea. The following applies: Micrococcus luteus. The format is cell-based. The procedure: In vitro antibacterial testing data, as measured by standard dipped disc agar diffusion assays and Minimum Inhibitory Concentration (MIC) determinations are as follows:
A 0.5 inch disc dipped into a methanol solution of chloride (6b) at a concentration of 1 mg/ml gave a zone of inhibition of 30 mm when spotted on an agar tray seeded with S. lutea.
A general note: In agar diffusion tests the substance spreads into inoculated agar from a disc or well.

In assay [3] the test system is S. aureus. Briefly: Standard dipped disc agar diffusion assay, S. aureus. The format is cell-based. The settings on record: Staphylococcus aureus; 1 mg/ml, 0.5 in. disc. The source says:
In vitro antibacterial testing data, as measured by standard dipped disc agar diffusion assays and Minimum Inhibitory Concentration (MIC) determinations are as follows: […]

Assay [4] has as its system S. aureus. Briefly: S. aureus SQ-Mouse CD50. The format is in vivo. The settings on record: Staphylococcus aureus, sc.
[5] abbreviates: read-out: Agar Diffusion zone, S. lutea.

Each structure is given as a SMILES string. Like-named read-outs stand apart in the source and are kept apart here.

`COC1CC2C=CC3C4OC2(C(C)=CC(C)C(C(C)O)OC1=O)C3C(O)C(C)C4O` (single isomer, unassigned) [nodusmicin]: the “activity against B. fragilis” value in the assay with B. fragilis is reported as “active”. Besides, the “activity against C. perfringens” value with C. perfringens was “active”. In addition, in the assay with Mycobacterium avium, the “activity against Mycobacterium avium” value is listed as “active”. For the same molecule, the “activity against K. pneumoniae” value with K. pneumoniae is reported as “active”. For the same molecule, the “activity against S. lutea” value in the assay with S. lutea [1] is recorded as “active”.

Turning to `COC1CC2C=CC3C4OC2(C(C)=CC(C)C(C(C)=NO)OC1=O)C3C(O)C(C)C4OC(=O)c1ccc[nH]1` (single isomer, unassigned; isomer a) [Compound 46, 18-Deoxy-18-oximinonargenicin A1, Isomer A], the zone of inhibition at 1000 µg/mL amounted to 37 mm with Sarcina lutea (read-out: Zone size, S. lutea) and 30 mm with Staphylococcus aureus (read-out: Zone size, S. aureus).

As to `CON=C(C)C1OC(=O)C(OC)CC2C=CC3C4OC2(C(C)=CC1C)C3C(O)C(C)C4OC(=O)c1ccc[nH]1` (single isomer, unassigned; isomer a) [Compound 49, 18-Deoxy-18-methoximinonargenicin A1, Isomer A], the zone of inhibition at 1000 µg/mL in the assay on Sarcina lutea (1 mg/ml, 12.5 cm disc, table 6, read-out: Zone size, S. lutea) came to 35 mm; in the assay on Staphylococcus aureus (1 mg/ml, 12.5 cm disc, table 6, read-out: Zone size, S. aureus), 30 mm.

For `COC1CC2C=CC3C4OC2(C(C)=CC(C)C(C(C)=NO)OC1=O)C3C(O)C(C)C4OC(=O)c1ccc[nH]1` (single isomer, unassigned; isomer b) [Compound 47, 18-Deoxy-18-oximinonargenicin A1, Isomer B], in the assay on Sarcina lutea (1 mg/ml, 12.5 cm disc, table 6), the “Zone size, S. lutea” value is on record as 37 mm. The “Zone size, S. aureus” value with Staphylococcus aureus (1 mg/ml, 12.5 cm disc, table 6) was found to be 30 mm.

Regarding `CON=C(C)C1OC(=O)C(OC)CC2C=CC3C4OC2(C(C)=CC1C)C3C(O)C(C)C4OC(=O)c1ccc[nH]1` (single isomer, unassigned; isomer b) [Compound 50, 18-Deoxy-18-methoximinonargenicin A1, Isomer B], the “Zone size, S. lutea” value in the assay with Sarcina lutea (1 mg/ml, 12.5 cm disc, table 6) was determined as 35 mm. Also, the “Zone size, S. aureus” value in the assay with Staphylococcus aureus (1 mg/ml, 12.5 cm disc, table 6) turned out to be 30 mm.

Broadly, the ED50 is the midpoint of the dose-response relation. High values mean weaker potency, low ones greater potency. Consider `COC1CC2C=CC3C4OC2(C(C)=CC(C)C(C(C)Cl)OC1=O)C3C(O)C(C)C4OC(=O)c1ccc[nH]1` (stereo not shown) [Compound 24, 18-Chloro-18-deoxynargenicin A1], for which the zone of inhibition at 1000 µg/mL in the assay on S. lutea [2] (setting [5]) was 31 mm; with S. aureus [3] it was 29 mm. In the assay with S. aureus [4], this molecule showed an ED50 of 107 mg/kg.

As for `COC1CC2C=CC3C4OC2(C(C)=CC(C)C(C(C)=O)OC1=O)C3C(O)C(C)C4OC(=O)c1ccc[nH]1` (stereo not shown) [Compound 25, 18-Deoxy-18-oxonargenicin A1], the zone of inhibition at 1000 µg/mL in the assay with S. lutea [2] (setting [5]) was found to be 41 mm; in the assay with S. aureus [3], 35 mm. In addition, in the assay with S. aureus [4], the ED50 came out at 152 mg/kg.

Regarding `COC1CC2C=CC3C4OC2(C(C)=CC(C)C(C(C)N=[N+]=[N-])OC1=O)C3C(O)C(C)C4OC(=O)c1ccc[nH]1` (stereo not shown) [Compound 29, 18-Azido-18-deoxynargenicin A1], the zone of inhibition at 1000 µg/mL in the assay with S. lutea [2] (setting [5]) is 33 mm; in the assay on S. aureus [3], 26 mm.

With `CCC1OC(=O)C(OC)CC2C=CC3C4OC2(C(C)=CC1C)C3C(O)C(C)C4OC(=O)c1ccc[nH]1` (stereo not shown) [Compound 32, 18-Deoxynargenicin A1], the zone of inhibition at 1000 µg/mL in the assay with S. lutea [2] (setting [5]) was 32 mm; in the assay on S. aureus [3], 29 mm. Besides, the ED50 with S. aureus [4] is greater than 100 mg/kg.

In the case of `COC1CC2C=CC3C4OC2(C(C)=CC(C)C(C(C)Cl)OC1=O)C3C(O)C(C)C4O` (stereo not shown) [Compound 35, 18-Chloro-18-deoxynodusmicin], the zone of inhibition at 1000 µg/mL is 30 mm in the assay with S. lutea [2] (1 mg/ml, 0.5 in. disc, read-out: Agar Diffusion zone, S. lutea) and 30 mm in the assay on S. lutea [2] (0.5 inch disc dipped into methanol solution, 1 mg/ml, read-out: zone of inhibition, S. lutea).

As to `COC1CC2C=CC3C4OC2(C(C)=CC(C)C(C(C)O)OC1=O)C3C(O)C(C)C4OC(=O)c1ccc[nH]1` (stereo not shown) [Compound 45, 18-Epinargenicin A1], the zone of inhibition at 1000 µg/mL was found to be 35 mm with Sarcina lutea (read-out: zones of inhibition, Sarcina lutea) and 26 mm in the assay on Staphylococcus aureus (read-out: zones of inhibition, Staphylococcus aureus).

Take `COC1CC2C=CC3C4OC2(C(C)=CC(C)C(C(C)=NNC(N)=O)OC1=O)C3C(O)C(C)C4OC(=O)c1ccc[nH]1` (stereo not shown) [Compound 48, 18-Deoxy-18-semicarbazononargenicin A1]: the zone of inhibition at 1000 µg/mL with Sarcina lutea (read-out: Zone size, S. lutea) stood at 35 mm; in the assay on Staphylococcus aureus (read-out: Zone size, S. aureus), 28 mm.

As to `COC1CC2C=CC3C4OC2(C(C)=CC(C)C(C(C)O)OC1=O)C3C(O)C(C)C4OC(=O)c1ccc[nH]1` (stereo not shown) [Nargenicin A1, nargenicin A1, reference compound], the ED50 in the assay on S. aureus [4] lay within 17 to 20 mg/kg.
